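A five-concentration, 48-hour dose response in 96-well plates underlies each endpoint, interpolated linearly between surrounding concentrations. GI50 = concentration required for 50% inhibition of growth.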 The source made the active and inactive calls. No stated cut-off is given here; in the data, active = GI50 up to about 1.1 µM and inactive = higher.
Assays:
Assay in all cases: NCI-60 cell line screen, 48 h
[1] = system: MCF7
[2] = system: BT-549
[3] = system: CAKI-1
[4] = system: OVCAR-4
[5] = system: T47D
[6] = system: SN12C
[7] = system: SK-MEL-2
[8] = system: SF-268
[9] = system: SW-620
[10] = system: MOLT-4
[11] = system: SK-MEL-28
[12] = system: HCT-116
[13] = system: HOP-92
[14] = system: SR
[15] = system: SF-539
[16] = system: NCI/ADR-RES
[17] = system: RPMI-8226
[18] = system: SNB-75
[19] = system: TK-10
[20] = system: MDA-MB-435

SMILES | GI50 [1] | GI50 [2] | GI50 [3] | GI50 [4] | GI50 [5] | GI50 [6] | GI50 [7] | GI50 [8] | GI50 [9] | GI50 [10] | GI50 [11] | GI50 [12] | GI50 [13] | GI50 [14] | GI50 [15] | GI50 [16] | GI50 [17] | GI50 [18] | GI50 [19] | GI50 [20]
COC(=O)c1cc2c3c(c1)Oc1cc(C(=O)OC)cc4c1C3c1c(cc(C(=O)OC)cc1O4)O2 | 10.6 µM (inactive) | 20.5 µM (inactive) | 14 µM (inactive) | 34 µM (inactive) | 20 µM (inactive) | 32.7 µM (inactive) | 36.6 µM (inactive) | 9.18 µM (inactive) | 35 µM (inactive) | 7.41 µM (inactive) | 34 µM (inactive) | 18.6 µM (inactive) | 19.4 µM (inactive) | 13.8 µM (inactive) | 15.1 µM (inactive) | 0.163 µM (active) | 6.44 µM (inactive) | 5.81 µM (inactive) | 15.3 µM (inactive) | 9.68 µM (inactive)
N#Cc1nc(COCCOCc2ccccc2)oc1N | > 100 µM (inactive) | 88.9 µM (inactive) | > 100 µM (inactive) | > 100 µM (inactive) | > 100 µM (inactive) | > 100 µM (inactive) | > 100 µM (inactive) | > 100 µM (inactive) | > 100 µM (inactive) | > 100 µM (inactive) | > 100 µM (inactive) | > 100 µM (inactive) | > 100 µM (inactive) | > 100 µM (inactive) | > 100 µM (inactive) | > 100 µM (inactive) | > 100 µM (inactive) | > 100 µM (inactive) | > 100 µM (inactive) | > 100 µM (inactive)
CCOP(=O)(OCC)C(F)(F)Cc1cnc(C)c2c1COC(C)(C)O2 | > 10 µM (inactive) | > 10 µM (inactive) | > 10 µM (inactive) | > 10 µM (inactive) | > 10 µM (inactive) | > 10 µM (inactive) | > 10 µM (inactive) | > 10 µM (inactive) | > 10 µM (inactive) | > 10 µM (inactive) | > 10 µM (inactive) | > 10 µM (inactive) | > 10 µM (inactive) | > 10 µM (inactive) | > 10 µM (inactive) | > 10 µM (inactive) | > 10 µM (inactive) | > 10 µM (inactive) | > 10 µM (inactive) | > 10 µM (inactive)
Cc1nc(-n2nc(-c3ccccc3)cc2-c2ccccc2)sc1C(=O)/C=C/c1ccc([N+](=O)[O-])cc1 | 5.74 µM (inactive) | 13.2 µM (inactive) | 24.9 µM (inactive) | 34.1 µM (inactive) | 9.25 µM (inactive) | 29.1 µM (inactive) | 43.1 µM (inactive) | 16.7 µM (inactive) | 21.4 µM (inactive) | 10.9 µM (inactive) | 28.7 µM (inactive) | 12.7 µM (inactive) | > 56.5 µM (inactive) | 2.86 µM (inactive) | 11.2 µM (inactive) | 17.2 µM (inactive) | 10.5 µM (inactive) | 2.69 µM (inactive) | 41.5 µM (inactive) | 16 µM (inactive)
